In patent US10632147B2, “Methods and compositions for treating inflammatory disorders” (priority 2007, dated 2020):

Legend:
[1] = tested on: Staphylococcus hominis ATCC #25615; assay: Microbial Time Kill Assay; type: cell-based; details: 150 ppm AFC, 15 second contact time
[2] = tested on: Enterococcus faecium (VRE) ATCC #51559; assay: Microbial Time Kill Assay; type: cell-based; details: 150 ppm AFC, 15 second contact time
[3] = tested on: human norovirus; assay: Norovirus carrier test; details: ceramic tiles and stainless steels, 1 min contact time, 20-200 ppm, RNA testing
[4] = tested on: Adenovirus, type V; assay: Virucidal suspension test; type: cell-based
[5] = tested on: Enterococcus faecium ATCC 10541; assay: Bactericidal suspension test; type: cell-based
[6] = tested on: Escherichia coli (strain CM891); assay: Bacterial mutagenicity; details: 241-252 ppm AFC, absence and presence of liver S9 fraction
[7] = tested on: Candida albicans ATCC #10231; assay: Microbial Time Kill Assay; type: cell-based; details: 150 ppm AFC, 15 second contact time
Procedure: Fungicidal activity tests were performed using hypochlorous acid (140-150 ppm) against Candida albicans ATCC 10231 and Aspergillus niger ATCC 16404. Stock culture of Candida albicans ATCC 10231 and Aspergillus niger ATCC 16404 were grown and maintained on Malt Extract Agar at 30° C. […] All samples were serially diluted, plated out on Tryptic Soy Agar, incubated at 37° C. for 3 days and colonies forming units counted.

[8] = tested on: Klebsiella pneumonia ATCC #4352; assay: Microbial Time Kill Assay; type: cell-based; details: 150 ppm AFC, 15 second contact time
[9] = tested on: wound pathogens including S. aureus, P. aeruginosa, E. coli, Enterococcus spp., and Candida spp.; assay: In vitro antimicrobial studies against wound pathogens; type: cell-based; details: within a 15 seconds contact time, even at ≤150 ppm
[10] = tested on: Staphylococcus epidermidis ATCC #14990; assay: Microbial Time Kill Assay; type: cell-based; details: 150 ppm AFC, 15 second contact time
[11] = Acute oral toxicity; details: 500 ppm AFC, single dose of 5 g/kg orally, observed up to 14 days
[12] = tested on: Klebsiella oxytoca ATCC #12833; assay: Microbial Time Kill Assay; type: cell-based; details: 150 ppm AFC, 15 second contact time
[13] = tested on: Bacillus subtilis var. niger CIP 7 718; assay: Sporicidal suspension test; type: cell-based
Procedure: (§1) Sporicidal activity tests were performed using hypochlorous acid solution against Bacillus cereus CIP 7803, Bacillus subtilis CIP 7718, Clostridium sporogenes CIP 7939. Stock spore suspensions of Bacillus cereus CIP 7803, Bacillus subtilis CIP 7718, Clostridium sporogenes CIP 7939 were obtained from the Pasteur Institute's National Collection for the Culture of micro-organisms. Spore suspensions (1 ml) were added to 4 ml of sterile distilled water and 5 ml of hypochlorous acid solution at a range of concentrations at 20° C. After an exposure time of 60 minutes, 1 ml samples were neutralized using standard quench solution. All samples were serially diluted, plated out on selective agar, incubated aerobically or anaerobically at either 30° C. or 37° C. for 72 hours and colonies forming units counted.

[14] = tested on: Clostridium sporogenes CIP 7 939; assay: Sporicidal suspension test; type: cell-based
Procedure: as §1

[15] = tested on: Proteus mirabilis ATCC #43071; assay: Microbial Time Kill Assay; type: cell-based; details: 150 ppm AFC, 15 second contact time
[16] = tested on: Staphylococcus aureus ATCC #6538; assay: Microbial Time Kill Assay; type: cell-based; details: 150 ppm AFC, 15 second contact time
[17] = tested on: Acinetobacter baumannii ATCC #19606; assay: Microbial Time Kill Assay; type: cell-based; details: 150 ppm AFC, 15 second contact time
[18] = Dermal irritation study (Draize); type: in vivo, New Zealand white rabbits; details: 0.5 ml, 689.5 ppm AFC, intact and abraded site; Draize at 24 and 72 hours
Procedure: A skin irritation study was conducted on six healthy New Zealand white rabbits. The test article (0.5 ml hypochlorous acid, 689.5 ppm AFC) was applied to one intact and one abraded site on the clipped back of each rabbit. Skin reactions were evaluated by the Draize technique at 24 and 72 hours after dosing and the primary irritation index was calculated. There was no erythema or edema noted at any time period and there were no abnormal physical signs noted during the observation period.

[19] = tested on: Micrococcus luteus ATCC #10240; assay: Microbial Time Kill Assay; type: cell-based; details: 150 ppm AFC, 15 second contact time
[20] = tested on: Enterobacter aerogenes ATCC #51342; assay: Microbial Time Kill Assay; type: cell-based; details: 150 ppm AFC, 15 second contact time
[21] = Pilot study HOCl versus Sulfamylon as irrigant over excised and grafted burn
[22] = tested on: Clostridium difficile (spores); assay: Endospore Time Kill Assay; type: cell-based; details: for Log Reduction / Vashe Log10 / Vashe Survivors / % Reduction (% Kill): ≤150 ppm AFC
[23] = tested on: coliphage MS2; assay: MS2 coliphage suspension test; type: cell-based; details: 20-200 mg/L, within a contact time of 20 seconds
[24] = hypochlorous acid 40-180 ppm, suspension test

OCl [hypochlorous acid]
% Reduction (% Kill) [1]: >99.999% | HOCl Solution Log10 [1]: ≤1 | HOCl Solution Survivors [1]: <10 | Log Reduction [1]: ≥5.68 | % Reduction (% Kill) [2]: >99.999% | HOCl Solution Log10 [2]: ≤1 | HOCl Solution Survivors [2]: <10 | Log Reduction [2]: ≥5.20 | inactivation of human norovirus [3]: > 3 log10 | Test Result (Log reduction) [4]: >10^4 in 15 min. | contact time after which pass was achieved [4]: 15 min | contact time after which pass was achieved [5, 24]: 15 s | Test Result (Log reduction) ([5]; in 5 min., 20° C. ± 1° C.): >10^5 in 5 min. | mutagenic activity [6]: No evidence of mutagenic activity | % Reduction (% Kill) [7]: >99.999% | HOCl Solution Log10 [7]: ≤1 | HOCl Solution Survivors [7]: <10 | Log Reduction [7]: ≥5.63 | % Reduction (% Kill) [8]: >99.999% | HOCl Solution Log10 [8]: ≤1 | HOCl Solution Survivors [8]: <10 | Log Reduction [8]: ≥5.70 | kill [9]: > 5 log | % Reduction (% Kill) [10]: >99.999% | HOCl Solution Log10 [10]: ≤1 | HOCl Solution Survivors [10]: <10 | mortality or evidence of toxicity [11]: no mortality or evidence of toxicity | % Reduction (% Kill) [12]: >99.999% | HOCl Solution Log10 [12]: ≤1 | HOCl Solution Survivors [12]: <10 | Log Reduction [12]: ≥5.18 | contact time after which pass was achieved [13, 24]: 60 min | Test Result (Log reduction) ([13]; in 60 min., 20° C. ± 1° C.): >10^6 in 60 min. | contact time after which pass was achieved [14, 24]: 60 min | Test Result (Log reduction) ([14]; in 60 min., 20° C. ± 1° C.): >10^6 in 60 min. | % Reduction (% Kill) [15]: >99.999% | HOCl Solution Log10 [15]: ≤1 | HOCl Solution Survivors [15]: <10 | Log Reduction [15]: ≥5.40 | % Reduction (% Kill) [16]: >99.995% | HOCl Solution Log10 [16]: ≤1 | HOCl Solution Survivors [16]: <10 | Log Reduction [16]: ≥4.96 | % Reduction (% Kill) [17]: >99.999% | HOCl Solution Log10 [17]: ≤1 | HOCl Solution Survivors [17]: <10 | Log Reduction [17]: ≥5.15 | dermal irritation [18]: no dermal irritation | % Reduction (% Kill) [19]: >99.999% | HOCl Solution Log10 [19]: ≤1 | HOCl Solution Survivors [19]: <10 | Log Reduction [19]: ≥5.04 | % Reduction (% Kill) [20]: >99.999% | HOCl Solution Log10 [20]: ≤1 | HOCl Solution Survivors [20]: <10 | Log Reduction [20]: ≥5.43 | safety profile (adverse effects) [21]: absence of adverse effects | graft take and infection prevention compared with Sulfamylon ([21]; 150-180 ppm AFC): equivalency | pain reduction (visual analogue scale) compared with Sulfamylon group ([21]; 150-180 ppm AFC): better | contact time after which pass was achieved [22, 24]: 5 min | Log Reduction ([22]; contact time 15 seconds): 3.15 | Vashe Log10 ([22]; contact time 15 seconds): 2.52 | Vashe Survivors ([22]; contact time 15 seconds): 330 | % Reduction (% Kill) ([22]; contact time 15 seconds, listed as HOCl solution): 99.93% | % Reduction (% Kill) ([22]; contact time 15 seconds, listed as hypochlorous acid solution): > 99.9% | % Reduction (% Kill) ([22]; contact time 5 minutes): >99.999% | Log Reduction ([22]; contact time 5 minutes): ≥5.69 | Vashe Log10 ([22]; contact time 5 minutes): ≤1 | Vashe Survivors ([22]; contact time 5 minutes): <10 | reduction of MS2 [23]: 3 log10
